Measurements as given in patent US20020192314A1, “Dietary supplement compositions” (priority 2001, published 2002).

Tested on: LDL cholesterol
Test: LDL cholesterol oxidation lag time, copper ions, absorbance at 234 nm
Type: biochemical, human
Conditions: copper ions 5 μmole/L
Protocol: The antioxidant properties of a dietary supplement can be measured using an assay for LDL cholesterol oxidation. Briefly, blood samples are drawn and LDL cholesterol is isolated. The isolated LDL cholesterol is combined with a dietary supplement to be evaluated, and the time (i.e., lag time) before cholesterol oxidation is observed is measured. Copper ions accelerate the production of conjugated dienes due to oxidation, while antioxidants prolong the onset of diene production. Since dienes absorb light at 234 nm, LDL cholesterol oxidation can be monitored by examining the absorbance at 234 nm as a function of time. Thus, the antioxidant properties of, for example, a dietary supplement or other compound can be evaluated by determining the time elapsed before LDL cholesterol oxidation is observed.
LDL cholesterol oxidation is usually determined by measuring absorbance at 234 nm (AbS234 nm) as a function of time under oxidative conditions. The antioxidant effectiveness of various grape seed extracts was determined. LDL cholesterol was prepared from human volunteer blood samples as described above. Isolated LDL cholesterol was then mixed with a buffer, vitamin E, or grape seed extract. Copper ions (5 μmole/L final concentration) were added to each sample. Grape seed extracts were prepared at 0.5 or 1.0 mg/L final concentration. […]

## Vitamin E
  time LDL cholesterol protected from oxidation: about 125 min
Grape seed extract 0.5 mg/L, vitamin E amount comparable to blood level after 400 IU
  LDL oxidation lag time: 125 min
